Test system: A. baumannii
Assay: minimum inhibitory concentration (MIC) against A. baumannii
Type: cell-based, Acinetobacter baumannii

Row | Compound | MIC
1 | CC(=O)OC[C@H]1O[C@@H]([S-])[C@H](OC(C)=O)[C@@H](OC(C)=O)[C@@H]1OC(C)=O.CCP(CC)CC.[Au+] [Auranofin, (2,3,4,6-Tetra-O-acetyl-1-thio-β-D-glucopyranosato-κS^1)(triethylphosphoranylidene)gold] | 15.6 µg/mL
2 | Colistin | 1 µg/mL
